Where two headings read alike, the source gives them in different places.
What was measured:
[1] = rat, in vivo; for concentration: iv, 100 mg/kg
Protocol: (§2) During and after the infusion blood and bile samples were collected. Four hours after the experiment the rats were sacrificed and the urine collected from the bladder and the liver and kidneys removed.
(§3) Samples of plasma were also analysed for alanine transaminase.

[2] = system: alanine transaminase; assay: Comparative hepatotoxicity in the mouse (plasma alanine transaminase); assay type: in vivo
Protocol: […]. Plasma was prepared and the livers and kidneys excised and weighed.
Samples of plasma were also analysed for the enzyme alanine transaminase, an indicator of hepatotoxicity. […]

[3] = man, cited from earlier work
[4] = system: L1210 cells; assay: Reversal of L1210 toxicity by co-incubation with thymidine; assay type: cell-based; details: compound 50 uM + 10 uM thymidine
Protocol: Cells in the log phase of growth were diluted to about 5×10^4 /ml and duplicate 5ml aliquots were added to 50 ml tissue culture flasks containing the appropriate additions (diluted in RPMI and sterilised by Millipore filtration). Cell counts after 48 hours of incubation were obtained by Coulter counting.

[5] = cited from earlier work
[6] = system: L1210 cells; details: grown in vitro; cited from earlier work
[7] = system: L1210 tumour; assay: Treatment of L1210 tumour-bearing mice; assay type: in vivo, mouse
Protocol: (§1) The L1210 tumour is carried routinely in DBA2 mice at the Institute of Cancer Research (L1210/CBRI). For experiments 5×10^4 cells were implanted i.p. into male C57Bl×DBA2 F1 hybrid mice 3 days prior to treatment. […] The control group consisted of 9 mice and treated groups 6 or 7 mice.

[8] = in vivo; details: rat, iv, 100 mg/kg, Plasma levels
Protocol: as §2, §3

[9] = Comparative pharmacokinetics in the mouse (plasma, liver, kidney levels); assay type: in vivo; details: for concentration at 3 h / concentration at 6 h: mouse, plasma, ip, read-out: Plasma quinazoline conc.
Protocol: 3 Hours and 6 hours after administration groups of three mice at each dose level were sacrificed by exsanguination via cardiac puncture. Plasma was prepared and the livers and kidneys excised and weighed.

[10] = system: L1210 cells; details: cited from earlier work
[11] = Urinary and faecal elimination in the mouse; assay type: in vivo; details: ip, 100 mg/kg i.p., 0-48 h
[12] = system: de novo thymidylate synthesis in L1210 cells; assay: Incorporation of 3H dUrd into acid-precipitable material in L1210 cells; assay type: cell-based; details: Mus musculus, L1210, 10 min; 50 uM, by about 10 minutes
Protocol: L1210 cells were used at a concentration of 10^5 /ml. Incubation at 37° C. was in complete RPMI tissue culture medium plus or minus drugs for the lengths of time indicated on the graphs. After this time ^3 H dUrd was added at a concentration of 2 uCi/ml (about 0.2 uM). Three 1 ml aliquots were removed after 20 minutes, placed on ice and mixed with 1 ml of ice-cold phosphate buffered saline (PBS). Precipitation onto glass-fibre discs was performed by trichloroacetic acid washing followed by PBS. […] This is an indirect measurement of de novo thymidylate synthesis in whole cells. […] These concentrations are 10 times the ID50 values.

[13] = system: L1210/C15 cells; assay: L1210/C15 cell culture growth inhibition (overproduces TS 45-fold); assay type: cell-based; details: 48 hours; at 100 uM
Protocol: Cell counts after 48 hours of incubation were obtained by Coulter counting.

[14] = mouse; cited from earlier work
[15] = Toxicity and weight loss in treated L1210 tumour-bearing mice; assay type: in vivo, mouse; details: 200 mg/kg, data not included
Protocol: as §1

[16] = system: L1210 tumour; details: grown in vivo; cited from earlier work
[17] = 100 mg/kg i.p., 3 h post-treatment
[18] = 100 mg/kg i.p., 6 h post-treatment
[19] = 300 mg/kg i.p., 3 h post-treatment
[20] = 300 mg/kg i.p., 6 h post-treatment

For C#CCN(Cc1ccc2nc(N)nc(O)c2c1)c1ccc(C(=O)N[C@@H](CCC(=O)O)C(=O)O)cc1 [CB3717, N-(4-(N-((2-amino-4-hydroxy-6-quinazolyl)methyl)prop-2-ynylamino)benzoyl)-L-glutamic acid, reference compound], the “clearance from the plasma (in words)” value [1] was “cleared less rapidly”, the concentration ([1]; 0.5 h) was 447 µM and the concentration ([1]; 1 h) was 878 µM. For the same molecule, the “Plasma alanine transaminase level” value [2, 17] was 225 ± 146 U/L, the “Plasma alanine transaminase level” value [2, 18] was 273 ± 106 U/L and the “Plasma alanine transaminase level” value [2, 19] was 86 ± 61 U/L. The “Plasma alanine transaminase level” value [2, 20] was 973 ± 178 U/L, the “Levels of alanine transaminase (in words)” value ([2]; mice i.p., normal range 5-25U/l) was “markedly elevated” and the hepatic toxicity [3] was “apparently non-dose-related (although not life-threatening) hepatic toxicity”. The “liver toxicity: alanine transaminase” value [3] was “transient rise in alanine transaminase”, the “responses noted during Phase I/II clinical studies” value ([3]; particularly breast and ovary) was “Several minor and partial responses” and the “Cell count at 48 hours as % control” value [4] was 103 % control. For the same molecule, the “solubility at acid pH” value [5] was “poor solubility”, the “activity against L1210 cells in vitro” value [6] was “active against L1210 cells” and the “"cures" (survived >100 days)” value ([7]; 50 mg/kg i.p. daily ×5) was “about 70%”. The “"cures"” value ([7]; 100 mg/kg (the optimal dose), many previous experiments) was 80-100%, the concentration at 0.5 h [8] was 412 µM and the concentration at 1 h [8] was 908 µM. The Kidney quinazoline level [9, 17] was 13 ± 2 % dose administered, the Liver quinazoline level [9, 17] was 32 ± 4 % dose administered and the Kidney quinazoline level [9, 18] was 20 ± 8 % dose administered. It also gave a Liver quinazoline level [9, 18] of 11 ± 2 % dose administered, a Kidney quinazoline level [9, 19] of 6 ± 1 % dose administered and a Liver quinazoline level [9, 19] of 22 ± 8 % dose administered. For the same molecule, the Kidney quinazoline level [9, 20] was 16 ± 1 % dose administered, the Liver quinazoline level [9, 20] was 14 ± 6 % dose administered and the “detection in plasma, liver and kidneys” value ([9]; mice, 3 and 6 hours after i.p. dose, for CB3804 except plasma 3 h at 500 mg/kg) was “readily detected”. The concentration at 3 h [9, 17] was 134 ± 34 µM, the concentration at 6 h [9, 18] was 59 ± 38 µM and the concentration at 3 h [9, 19] was 214 ± 55 µM. For the same molecule, the concentration at 6 h [9, 20] was 362 ± 32 µM, the “effect of thymidine on cytotoxic effect” value [10] was “prevented in both cases by thymidine” and the dose excreted at 48 h ([11]; faeces, read-out: Faecal excretion of the parent compound) was 26 ± 7%. The dose excreted at 48 h ([11]; urine, read-out: Urinary excretion of the parent compound) was 15 ± 3%, the activity at 50 µM [12] was less than 20% and the “L1210/C15 ID50” value [13] was “no inhibition”. For the same molecule, the “kidney toxicity: plasma urea” value [14] was “rise in plasma urea”, the “liver toxicity: alanine transaminase” value [14] was “transient rise in alanine transaminase” and the weight loss [15] was “about 10%”. The mortality ([15]; mouse, in vivo, ip, read-out: death (of the animals)) was roughly 50% and the “activity against L1210 cells in vivo” value [16] was “active against L1210 cells”.

Source: patent US5236927A, “Anti-cancer quinazoline derivatives” (National Research Development Corporation, priority 1985, dated 1993)
